The values below come from the NIST ThermoML archive (doi:10.1021/acs.jced.8b01165).

For series [1] the following is noted: Crystal; DSC.
Series [2] in a line: Molar enthalpy of transition or fusion. As to conditions: Crystal; DSC.

Numbers after ± are expanded uncertainties.

Regarding `C=C(C)C1Cc2c(ccc3c2OC2COc4cc(OC)c(OC)cc4C2C3=O)O1` (configuration not stated), the Triple point temperature in series [1] is given as 435.89 ± 1 K. Besides, in series [2], the “Molar enthalpy of transition or fusion” value stood at 28.5 ± 0.85 kJ/mol.
